# Results reported in patent US11135320B2, “Radioligands for pretargeted pet imaging and methods of their therapeutic use” (priority 2015, dated 2021).
# Values joined by “and” are separate entries in the source; they are usually repeats but may differ in a detail not shown here. Identical values can stand only once.
# What was measured:
# [1] = Blood residence time of ^64Cu-Tz-SarAr in healthy mice; assay type: in vivo, athymic nude mice; details: for Activity in Blood: healthy mice
# Experimental: The radioligand was excreted rapidly via the bladder and kidneys, and the activity concentrations in the large intestine—a critical source of background noise in clinical colorectal cancer imaging—remained remarkably low (e.g., 0.07±0.01% ID/g at 1 h post-injection). Additional experiments were conducted to further interrogate the in vivo performance of ^64Cu-Tz-SarAr.
# [2] = Dosimetry calculations (OLINDA) for huA33-based PET imaging strategies; design: species or system human (70-kg Standard Man model, from mouse biodistribution); details: pretargeting
# Experimental: The radiation dosimetry of ^64Cu-Tz-SarAr was performed to ensure the selective delivery of radioisotopes to malignant tissues at radiation doses below the doses of traditional radioimmunoconjugates. To this end, dosimetry calculations were performed using the biodistribution data collected and the OLINDA computer program to determine the mean organ absorbed doses (rad/mCi) and effective dose (rem/mCi) for each strategy (Table 23). The total effective dose of the ^64Cu-Tz-SarAr pretargeting strategy with a 24 h interval period was 0.041 rem/mCi, a slight reduction compared to the 0.046 rem/mCi effective dose created by ^64Cu-Tz-NOTA. This difference was due to the significant reduction in the mean organ absorbed dose to the large intestine. Moreover, the total effective dose of the ^64Cu-Tz-SarAr pretargeting strategy was inversely proportional to the duration of the accumulation interval. For example, the effective dose decreased from 0.041 rem/mCi with a 24 h interval to 0.038 rem/mCi with a 48 h interval to 0.034 with a 120 h interval.
# Mouse biodistribution data were expressed as normal-organ mean standard uptake values (SUVs) versus time post-administration. In first order, that SUVs were independent of body mass and thus the same among species, the mean SUV in mouse organ i, SUVOrgan i|Mouse, was converted to the fraction of the injected dose in each human organ I, FIDOrgan I|Human, using the following formula:
# [formula] and the organ and total-body masses of the 70-kg Standard Man anatomic model. […] The cumulated activity, or residence time, in human organ i, μCi, in μCi h/μCi, was then calculated by analytically integrating the time-activity function in organ i, replacing the biological clearance constant, (λbλj, for each component j of the fitted exponential function with the corresponding effective clearance constant, (λeλj=(λbλj+λp, where λp is the physical decay constant of the radionuclide. The resulting organ residence times were entered into the OLINDA computer program to yield the mean organ absorbed doses and effective dose in rad/mCi and rem/mCi, respectively. Statistical Analysis
smiles,measurement,setting,value
NC12CNCCNCC(NCc3ccc(CNC(=O)CCCC(=O)NCc4ccc(-c5nncnn5)cc4)cc3)(CNCCNC1)CNCCNC2.[64Cu+2] [^64Cu-Tz-SarAr],half-life of clearance from the blood,"[1]; biexponential fit, greater than 99% of the radioligand",~16 min
same,Activity in Blood,[1]; 15 min,3.02 ± 1.10 % ID/g
same,Activity in Blood,[1]; 30 min,1.55 ± 0.21 % ID/g
same,Activity in Blood,[1]; 1 h,0.42 ± 0.11 % ID/g
same,Activity in Blood,[1]; 4 h,0.15 ± 0.01 % ID/g
same,Activity in Blood,[1]; 12 h,0.12 ± 0.03 % ID/g
same,Activity in Blood,[1]; 24 h,0.06 ± 0.01 % ID/g
same,blood residence time,[1]; vast majority of the radioligand,~16 min
same,Brain absorbed dose,[2]; 24 h interval,0.0361 rad/mCi
same,Breasts absorbed dose,[2]; 24 h interval,0.0323 rad/mCi
same,Effective Dose,[2]; 24 h interval,0.041 rem/mCi and 0.0414 rem/mCi
same,Heart Wall absorbed dose,[2]; 24 h interval,0.0427 rad/mCi
same,Kidneys absorbed dose,[2]; 24 h interval,0.0661 rad/mCi
same,Lower Lg. Int. Wall absorbed dose,[2]; 24 h interval,0.0482 rad/mCi
same,Osteogenic Cells absorbed dose,[2]; 24 h interval,0.0893 rad/mCi
same,Ovaries absorbed dose,[2]; 24 h interval,0.0401 rad/mCi
same,Pancreas absorbed dose,[2]; 24 h interval,0.0395 rad/mCi
same,Skin absorbed dose,[2]; 24 h interval,0.0297 rad/mCi
same,Small Intestine absorbed dose,[2]; 24 h interval,0.0418 rad/mCi
same,Spleen absorbed dose,[2]; 24 h interval,0.0370 rad/mCi
same,Stomach Wall absorbed dose,[2]; 24 h interval,0.0552 rad/mCi
same,Testes absorbed dose,[2]; 24 h interval,0.0345 rad/mCi
same,Thymus absorbed dose,[2]; 24 h interval,0.0349 rad/mCi
same,Upper Lg. Int. Wall absorbed dose,[2]; 24 h interval,0.0409 rad/mCi
same,Uterus absorbed dose,[2]; 24 h interval,0.0410 rad/mCi
same,Effective Dose,[2]; 48 h interval,0.038 rem/mCi and 0.0377 rem/mCi
same,Kidneys absorbed dose,[2]; 48 h interval,0.0539 rad/mCi
same,Pancreas absorbed dose,[2]; 48 h interval,0.0364 rad/mCi
same,Spleen absorbed dose,[2]; 48 h interval,0.0205 rad/mCi
same,Stomach Wall absorbed dose,[2]; 48 h interval,0.0422 rad/mCi
same,Uterus absorbed dose,[2]; 48 h interval,0.0383 rad/mCi
same,Effective Dose,[2]; 120 h interval,0.034 rem/mCi and 0.0341 rem/mCi
same,Heart Wall absorbed dose,[2]; 120 h interval,0.0330 rad/mCi
same,Kidneys absorbed dose,[2]; 120 h interval,0.0566 rad/mCi
same,Lungs absorbed dose,[2]; 120 h interval,0.0216 rad/mCi
same,Osteogenic Cells absorbed dose,[2]; 120 h interval,0.0720 rad/mCi
same,Spleen absorbed dose,[2]; 120 h interval,0.0225 rad/mCi
